Data on 15 compounds can be found in patent publication US5891882A, “Benzopyranopyrrole and benzopyranopyridine α-1 adenergic compounds” (priority 1997, dated 1999).

Holding throughout (type): cell-based
The target in test [1] is T1, α-1B adrenoreceptor (rat spleen) (Rattus norvegicus, UniProt P15823).
T1 construct: from tissue; host or cells: rat spleen
T1 sequence (P15823 1-515): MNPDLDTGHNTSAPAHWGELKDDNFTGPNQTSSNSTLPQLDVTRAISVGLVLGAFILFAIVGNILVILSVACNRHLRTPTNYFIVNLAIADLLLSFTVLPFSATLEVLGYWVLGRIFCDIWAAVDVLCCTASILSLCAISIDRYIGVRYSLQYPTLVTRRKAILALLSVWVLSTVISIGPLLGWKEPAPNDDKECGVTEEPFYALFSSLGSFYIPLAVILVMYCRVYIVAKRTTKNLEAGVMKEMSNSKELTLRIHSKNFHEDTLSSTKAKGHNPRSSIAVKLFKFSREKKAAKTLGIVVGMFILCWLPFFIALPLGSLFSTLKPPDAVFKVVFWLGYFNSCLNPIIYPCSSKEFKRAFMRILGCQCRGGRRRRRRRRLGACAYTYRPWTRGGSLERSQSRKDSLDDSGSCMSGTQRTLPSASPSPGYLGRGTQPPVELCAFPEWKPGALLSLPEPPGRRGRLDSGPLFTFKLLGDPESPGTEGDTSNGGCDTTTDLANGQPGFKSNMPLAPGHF
The experiment in a line: Functional antagonism: inhibition of phenylephrine-induced contraction of rat spleen. The settings on record: rat spleen, phenylephrine-induced contraction, Schild plot. From the text: (§1) Functional assays indicative of pharmacologically defined α-1 adrenoreceptors were used to further characterize compounds. Inhibition of phenylephrine (PE)-induced contraction of canine prostate smooth muscle can be correlated with α-1A adrenoreceptor activation. […] For each of these models, agonist dose response curves were repeated against increasing concentrations of test agent to derive a Schild plot [log ([…]) against log (molarity of test agent)] to determine the pA2.

Test [2] concerns the target T2, α-1A adrenoreceptor (canine prostate smooth muscle) (Canis lupus, UniProt A0A8I3NK63).
T2 construct: antagonism of phenylephrine-induced contraction (pA2, Schild)
T2 sequence (A0A8I3NK63 1-466): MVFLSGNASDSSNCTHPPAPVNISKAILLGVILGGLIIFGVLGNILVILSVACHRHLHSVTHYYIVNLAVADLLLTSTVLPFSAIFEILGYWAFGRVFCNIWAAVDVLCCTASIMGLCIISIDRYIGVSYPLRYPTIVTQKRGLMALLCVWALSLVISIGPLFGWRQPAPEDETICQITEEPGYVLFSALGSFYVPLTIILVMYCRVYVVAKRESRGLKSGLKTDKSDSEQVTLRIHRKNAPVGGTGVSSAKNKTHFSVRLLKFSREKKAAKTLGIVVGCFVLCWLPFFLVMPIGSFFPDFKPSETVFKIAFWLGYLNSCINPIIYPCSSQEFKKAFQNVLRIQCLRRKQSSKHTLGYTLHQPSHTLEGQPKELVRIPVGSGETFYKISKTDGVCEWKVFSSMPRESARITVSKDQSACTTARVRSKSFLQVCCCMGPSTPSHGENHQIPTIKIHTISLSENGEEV
The experiment in a line: Functional antagonism: inhibition of phenylephrine-induced contraction of canine prostate strips. The settings on record: Schild plot.
Excerpt: Canine prostate strips were used in vitro as previously described (Hieble, J. P., Boyce, Caine, M., Fed Proc., 45: 2609-2614 (1986)), to determine antagonist potencies phenylephrine-induced contractions.
as §1
Canine prostate strips were used in vitro as previously described (Hieble, J. P., Boyce, A. J. and Caine, M., Fed. Proc., 45: 2609-2614 (1986)), to determine antagonist potencies against phenylephrine-induced contractions.

Test [3] deals with T3, α-1 Adrenoceptors (Rat Aorta) (Rattus norvegicus, UniProt P23944).
T3 construct: Rat Aorta; from tissue; host or cells: rat aorta
T3 sequence (P23944 1-561): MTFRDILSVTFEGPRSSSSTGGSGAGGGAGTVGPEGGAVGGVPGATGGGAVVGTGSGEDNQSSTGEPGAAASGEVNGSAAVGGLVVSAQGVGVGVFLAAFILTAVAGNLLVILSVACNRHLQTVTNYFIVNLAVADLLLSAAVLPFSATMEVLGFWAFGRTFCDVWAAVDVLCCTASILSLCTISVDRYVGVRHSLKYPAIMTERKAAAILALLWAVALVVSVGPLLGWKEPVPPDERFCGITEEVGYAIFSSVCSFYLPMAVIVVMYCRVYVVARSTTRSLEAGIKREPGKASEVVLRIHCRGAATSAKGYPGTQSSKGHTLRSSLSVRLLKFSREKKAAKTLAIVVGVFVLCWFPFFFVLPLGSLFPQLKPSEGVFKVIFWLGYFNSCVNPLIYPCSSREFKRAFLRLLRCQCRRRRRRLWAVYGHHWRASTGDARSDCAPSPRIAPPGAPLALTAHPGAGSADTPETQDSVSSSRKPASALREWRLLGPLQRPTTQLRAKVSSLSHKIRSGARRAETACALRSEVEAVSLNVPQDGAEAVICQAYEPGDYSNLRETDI
Briefly: Functional antagonism at α-1 adrenoceptors, rat aorta. The settings on record: read-out: In Vitro Characterization (pA2) Rat Aorta (converted).
Excerpt: as §1

Where a name gives a salt, the structure may show the parent alone.

In the case of `COc1cccc2c1OC[C@H]1CN(CCn3c(=O)[nH]c4c(sc5ccccc54)c3=O)C[C@@H]21.Cl` (racemic) [Example 67, 3-[2-((±)-cis-6-Methoxy-1,2,3,3a,4,9b-hexahydro-[1]-benzopyrano[3,4-c]pyrrol-2-yl)ethyl]-[1]-benzthieno[3,2-d]pyrimidine-2,4(1H,3H)-dione hydrochloride], the “In Vitro Characterization (pA2) Rat Spleen” value in test [1] was determined as 6.83. Moreover, in test [2], the “In Vitro Characterization (pA2) Dog Prostate” value was determined as 7.33. On to `COc1cc2[nH]c(=O)n(CCCCN3C[C@@H]4COc5ccccc5[C@@H]4C3)c(=O)c2cc1OC.Cl` (racemic) [Example 81, 3-[4-((±)-cis-1,2,3,3a,4,9b-hexahydro-[1]-benzopyrano[3,4-c]pyrrol-2-yl)butyl]-6,7-dimethoxy-quinazoline-2,4(1H,3H)-dione hydrochloride], for which the “In Vitro Characterization (pA2) Rat Spleen” value in test [1] was determined as 7.41. Consider `COc1cccc2c1[C@H]1CN(CCCCn3c(=O)[nH]c4c(sc5cccnc54)c3=O)C[C@H]1CO2` [Example 2, 3-[4-((3aS,9bS)-cis-9-Methoxy-1,2,3,3a,4,9b-hexahydro-[1]-benzopyrano[3,4-c]pyrrol-2-yl)butyl]-pyrido[2',3':4,5]thieno[3,2-d]pyrimidine-2,4(1H,3H)-dione hydrochloride], for which, in test [2], the “In Vitro Characterization (pA2) Dog Prostate” value is recorded as 7.95. The same measure, in the same setting: then `COc1cccc2c1[C@@H]1CN(CCCCn3c(=O)[nH]c4c(sc5cccnc54)c3=O)C[C@H]1CO2` [Example 3, 3-[4-((3aS,9bR)-trans-9-Methoxy-1,2,3,3a,4,9b-hexahydro-[1]-benzopyrano[3,4-c]pyrrol-2-yl)butyl]-pyrido[2',3':4,5]thieno[3,2-d]pyrimidine-2,4(1H,3H)-dione hydrochloride], with 9.43.

Turning to `COc1cccc2c1[C@@H]1CN(CCCCn3c(=O)[nH]c4c(sc5ncc(Cl)nc54)c3=O)C[C@H]1CO2` [Example 13, 3-[4((3aS,9bR)-trans-9-Methoxy-1,2,3,3a,4,9b-hexahydro-[1]-benzopyrano[3,4-c]pyrrol-2-yl)butyl]-8-chloro-pyrazino[2',3':4,5]thieno[3,2-d]pyrimidine-2,4(1H,3H)-dione hydrochloride], the “In Vitro Characterization (pA2) Dog Prostate” value in test [2] is on record as 9.91. For the same compound, the Kb in test [3] is 0.0407 nM. With `COc1ccc2sc3c(=O)n(CCCCN4C[C@H]5COc6cccc(OC)c6[C@@H]5C4)c(=O)[nH]c3c2n1` [Example 26, 3-[4-((3aS,9bR)-trans-9-Methoxy-1,2,3,3a,4,9b-hexahydro-[1]-benzopyrano[3,4-c]pyrrol-2-yl)butyl]-8-methoxy-pyrido[2',3':4,5]thieno[3,2-d]pyrimidine-2,4(1H,3H)-dione dihydrochloride], in test [2], the “In Vitro Characterization (pA2) Dog Prostate” value was determined as 9.15. Further, the Kb in test [3] is 0.0661 nM. Consider `COc1cccc2c1[C@@H]1CN(CCCCn3c(=O)[nH]c4c(sc5ncccc54)c3=O)C[C@@H]1CO2` [Example 34, hydrochloride], for which the “In Vitro Characterization (pA2) Rat Spleen” value in test [1] is recorded as 8.12. For the same compound, in test [3], the Kb is 0.646 nM. Take `COc1cccc2c1[C@@H]1CN(CCCCn3c(=O)[nH]c4c(sc5ncc(-c6ccccc6)nc54)c3=O)C[C@@H]1CO2` [Example 39, 3-[4-((3aR,9bR)-cis-9-Methoxy-1,2,33a,4,9b-hexahydro-[1]-benzopyrano[3,4-c]pyrrol-2-yl)butyl]-8-phenyl-pyrazino[2',3':4,5]thieno[3,2-d]pyrimidine-2,4(1H,3H)-dione hydrochloride]: the “In Vitro Characterization (pA2) Rat Spleen” value in test [1] came out at 6.83. Besides, in test [2], the “In Vitro Characterization (pA2) Dog Prostate” value worked out at 8.52. The Kb in test [3] is 12.9 nM. Turning to `COc1cccc2c1[C@@H]1CN(CCCCn3c(=O)[nH]c4c(sc5ncccc54)c3=O)C[C@H]1CO2` [Example 44, 3-[4-((3aS,9bR)-trans-9-Methoxy-1,2,3,3a,4,9b-hexahydro-[1]-benzopyrano[3,4-c]pyrrol-2-yl)butyl]-pyrido[3',2':4,5]thieno[3,2-d]pyrimidine-2,4(1H,3H)-dione hydrochloride], in test [1], the “In Vitro Characterization (pA2) Rat Spleen” value turned out to be 8.35. In addition, the Kb in test [3] is 0.0398 nM. Take `COc1ccc2c(n1)sc1c(=O)n(CCCCN3C[C@H]4COc5cccc(OC)c5[C@@H]4C3)c(=O)[nH]c12` [Example 46, 3-[4-((3aS,9bR)-trans-9-Methoxy-1,2,3,3a,4,9b-hexahydro-[1]-benzopyrano[3,4-c]pyrrol-2-yl)butyl]-7-methoxy-pyrido[3',2':4,5]thieno[3,2-d]pyrimidine-2,4(1H,3H)-dione hydrochloride]: the “In Vitro Characterization (pA2) Rat Spleen” value in test [1] turned out to be 8.12. Further, in test [3], the Kb was 0.155 nM. With `COc1cccc2c1[C@@H]1CN(CCCCn3c(=O)[nH]c4c(sc5nc(Cl)ccc54)c3=O)C[C@H]1CO2` [Example 47, 3-[4-((3aS,9bR)-trans-9-Methoxy-1,2,3,3a,4,9b-hexahydro-[1]-benzopyrano[3,4-c]pyrrol-2-yl)butyl]-7-chloro-pyrido[3',2':4,5]thieno[3,2-d]pyrimidine-2,4(1H,3H)-dione hydrochloride], the “In Vitro Characterization (pA2) Rat Spleen” value in test [1] is recorded as 7.95. Besides, the Kb in test [3] is 0.204 nM. With `COc1cccc2c1[C@@H]1CN(CCCCn3c(=O)[nH]c4c(sc5ncc(-c6ccccc6)nc54)c3=O)C[C@H]1CO2` [Example 50, 3-[4-((3aS,9bR)-trans-9-Methoxy-1,2,3,3a,4,9b-hexahydro-[1]-benzopyrano[3,4-c]pyrrol-2-yl)butyl]-8-phenyl-pyrazino[2',3':4,5]thieno[3,2-d]pyrimidine-2,4(1H,3H)-dione hydrochloride], the “In Vitro Characterization (pA2) Rat Spleen” value in test [1] is given as 6.5. Also, the “In Vitro Characterization (pA2) Dog Prostate” value in test [2] came to 8.45. In test [3], the Kb was 0.389 nM. Consider `COc1cccc2c1[C@@H]1CN(CCCCn3c(=O)[nH]c4c(sc5c(Cl)nccc54)c3=O)C[C@H]1CO2` [Example 54], for which, in test [1], the “In Vitro Characterization (pA2) Rat Spleen” value amounted to 7.31.

As to `COc1cccc2c1[C@@H]1CCN(CCCCn3c(=O)[nH]c4c(sc5cccnc54)c3=O)C[C@H]1CO2` [Example 95, 3-[4-((4aS,10bR)-trans-10-Methoxy-1,3,4,4a,5,10b-hexahydro-2H-[1]-benzopyrano[3,4-c]pyrido-3-yl)butyl]-pyrido[2',3':4,5]thieno[3,2-d]pyrimidine-2,4(1H,3H)-dione dihydrochloride], the “In Vitro Characterization (pA2) Dog Prostate” value in test [2] came out at 8.58. Still for that read-out and setting: as for `COc1cccc2c1[C@@H]1CCN(CCCCn3c(=O)[nH]c4c(sc5ncc(Cl)nc54)c3=O)C[C@H]1CO2` [Example 97, 3-[4-((4aS,10bR)-trans-10-Methoxy-1,3,4,4a,5,10b-hexahydro-2H-[1]-benzopyrano[3,4-c]pyrido-3-yl)butyl]-8-chloro-pyrazino[2',3':4,5]thieno[3,2-d]pyrimidine-2,4(1H,3H)-dione dihydrochloride], the figure is 8.6.
